Data as given in PubChem BioAssay (NCI).
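Test compounds were applied to cells in 96-well plates for 48 hours at 5 doses. TGI is the concentration that stops growth completely.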

Columns and labels:
Experiment in all cases: growth of human tumour cells (NCI), 48 h
CCRF-CEM leukemia = tested on: CCRF-CEM leukemia
SK-OV-3 ovarian = tested on: SK-OV-3 ovarian
HL-60(TB) leukemia = tested on: HL-60(TB) leukemia
RPMI-8226 leukemia = tested on: RPMI-8226 leukemia
K-562 leukemia = tested on: K-562 leukemia
SR leukemia = tested on: SR leukemia
ACHN renal = tested on: ACHN renal
A549 NSCLC = tested on: A549 NSCLC
RXF 393 renal = tested on: RXF 393 renal
HT29 colon = tested on: HT29 colon
NCI-H522 lung = tested on: NCI-H522 lung
MDA-MB-231 breast = tested on: MDA-MB-231 breast
SW-620 colon = tested on: SW-620 colon
OVCAR-5 ovarian = tested on: OVCAR-5 ovarian
HCT-15 colon = tested on: HCT-15 colon
DU-145 prostate = tested on: DU-145 prostate
SK-MEL-2 melanoma = tested on: SK-MEL-2 melanoma
NCI-H23 lung = tested on: NCI-H23 lung
MOLT-4 leukemia = tested on: MOLT-4 leukemia
U251 CNS = tested on: U251 CNS

SMILES	TGI (CCRF-CEM leukemia) [µM]	TGI (SK-OV-3 ovarian) [µM]	TGI (HL-60(TB) leukemia) [µM]	TGI (RPMI-8226 leukemia) [µM]	TGI (K-562 leukemia) [µM]	TGI (SR leukemia) [µM]	TGI (ACHN renal) [µM]	TGI (A549 NSCLC) [µM]	TGI (RXF 393 renal) [µM]	TGI (HT29 colon) [µM]	TGI (NCI-H522 lung) [µM]	TGI (MDA-MB-231 breast) [µM]	TGI (SW-620 colon) [µM]	TGI (OVCAR-5 ovarian) [µM]	TGI (HCT-15 colon) [µM]	TGI (DU-145 prostate) [µM]	TGI (SK-MEL-2 melanoma) [µM]	TGI (NCI-H23 lung) [µM]	TGI (MOLT-4 leukemia) [µM]	TGI (U251 CNS) [µM]
Cc1cccc2c(N)c3cccc(C(=O)NCC[N+]4(Cc5ccc([N+](=O)[O-])cc5)CCOCC4)c3nc12	> 100	> 100	58.1	> 100	> 100	64.2	> 100	> 100	> 100	> 100	> 84.9	> 86.2	> 100	> 100	> 100	> 100	> 100	> 100	> 69.2	> 100
CC(C)/C(=N\[N+](C)(C)C)c1ccccc1	> 100	> 100	> 100	> 100	> 100	> 100	> 100	> 100	> 100	> 100	> 100	> 100	> 100	> 100	> 100	> 100	> 100	> 100	> 100	> 100
COP(=O)(OC)/C(=C/c1cn(C(c2ccccc2)(c2ccccc2)c2ccccc2)cn1)NC=O	> 100	90.8	> 100	> 100	> 100	> 100	24.6	> 100	35.1	33.8	41.2	33.5	78.1	38.2	99.4	> 100	34.4	41.2	> 100	35.4
NC(=O)c1c(NC=O)ncn1C1OCC(O)C(O)C1O (stereo not given)	> 100	> 100	> 100	> 100	> 100	> 100	> 100	> 100	> 100	> 100	> 100	> 100	> 100	> 100	> 100	> 100	> 100	> 100	> 100	> 100
C=CCc1cc(C(Cc2ccccc2)NC(C)C)cc(OCc2ccccc2)c1OCc1ccccc1 (stereo not given)	33.5	27	34.7	30.9	40.9	28.5	30.5	30.5	30.4	28.6	28.8	28.3	32.5	33.2	30.7	29.7	33.4	33.8	26.7	27.7
CC/C=C/C[C@H](O)[C@H]1C[C@H]2O[C@H](CC(=O)OC)C[C@H]2O1	> 100	> 100	> 100	> 100	> 100	> 100	> 100	> 100	> 100	> 100	> 100	> 100	> 100	> 100	> 100	> 100	> 100	> 100	> 100	> 100
CC(C)(C)C1=CC(=C2C=Cc3ccccc3O2)C=C(C(C)(C)C)C1=O	6.12	> 42.4	5.92	5.45	29.9	5.35	19.2	26.2	7.71	17.3	17.8	11.1	13.9	15.3	19.3	20.8	4.71	30.8	> 21.3	7.51
O=C(O)c1ccc(Nc2nc3cc(C(F)(F)F)ccc3n3cccc23)cc1	> 100	> 100	> 100	68.6	67.7	41.6	> 100	> 100	58.8	30.9	53.8	49.8	> 100	> 100	> 100	> 100	> 100	> 100	67.7	52.6
CC1CN=C(c2cccc(-c3nc(-c4cccc(C5=NCC(C)N5)c4)nc(N(C)C)n3)c2)N1 (stereo not given)	3.45	4.61	4.81	6.87	2.77	1.96	10.1	9.27	11.8	5.48	2.51	3.48	3.72	10.2	24.7	7.14	4.64	7.77	2.7	2.13
CC1(C)CCCCCC(C)(CCCO)C1=O (stereo not given)	> 100	> 100	> 100	> 100	> 100	> 100	> 100	> 100	> 100	> 100	> 100	> 100	> 100	> 100	> 100	> 100	> 100	> 100	> 100	> 100
CCOC(=O)C(O)(C(=O)OCC)c1cc(C(C)(C)C)c(O)c(C(C)(C)C)c1	> 100	> 100	98.2	91.3	> 100	> 100	> 100	> 100	77.1	> 100	> 100	> 100	> 100	> 100	> 100	> 100	> 100	> 100	> 100	> 100
O=S(=O)(/N=C(\NO)Nc1ccc(Cl)cc1)c1ccccc1	> 100	> 100	> 33.7	56.8	> 100	9.91	36.3	> 100	40	41.3	5.38	> 100	> 100	56.6	> 100	> 60.3	29.6	> 100	> 56.6	> 100
Nc1c2c(nc3ccccc13)-c1ccccc1NCCC2	81.3	> 100	47.5	58.5	> 100	> 100	> 100	> 100	33.2	83.9	82.6	53.5	> 100	> 100	> 100	> 100	37.1	> 100	> 100	> 100
CCN(CC)CCCNc1[nH]ncc2c(C)c3nc4ccc(OC)cc4c3cc12	2	5.33	2.9	2.69	1.64	1.76	5.95	2.73	3.37	6.04	0.639	2.65	1.58	6.66	36.3	8.24	3.01	1.97	0.0904	1.77
CC[P+]1(c2ccccc2)[C@@H](C)CC[C@@H]1C	> 100	> 100	> 100	> 100	> 100	> 100	> 100	> 100	> 100	> 100	> 100	> 100	> 100	> 100	> 100	> 100	> 100	> 100	> 100	> 100
Cc1ccc(O)c(C2=CC(c3cccc(Br)c3)SC(N)=N2)c1 (stereo not given)	81.7	75.6	75.1	49.8	83.2	49.7	52.2	88.3	47.1	> 100	37.7	64	> 100	92.5	32.8	> 100	39.4	76.3	63.4	33.4
CCOC(=O)c1cc(C2CCN(c3ccccc3)C2=O)c(C(=O)/C=C(/C)N)[nH]1 (stereo not given)	> 100	50.7	> 100	> 100	> 100	> 100	> 100	> 100	78.6	25.6	53.1	> 100	> 100	> 100	> 100	> 100	> 100	> 100	> 100	36.4
